# In PubChem BioAssay (NCI):
# Several values for one entry are separate records, joined by “and”; a condition that tells them apart may be missing. Equal entries are not always repeated.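 Step 1: Grow cells in 96-well plates. Step 2: Expose to compound for 48 hours at 5 concentrations. Step 3: Interpolate endpoints linearly; if unreached, use highest concentration. At the GI50, growth is halved. TGI marks complete inhibition of growth.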
# Experiments:
# Assay in all cases: growth of human tumour cells (NCI), 48 h
# [1] = tested on: SF-539 CNS
# [2] = tested on: 786-0 renal
# [3] = tested on: LOX IMVI melanoma
# [4] = tested on: KM12 colon
# [5] = tested on: A549 NSCLC
# [6] = tested on: A498 renal
# [7] = tested on: MALME-3M melanoma
# [8] = tested on: NCI/ADR-RES ovarian
# [9] = tested on: T-47D breast
# [10] = tested on: MDA-MB-231 breast
Compound,TGI [1],TGI [2],TGI [3],TGI [4],TGI [5],TGI [6],TGI [7],TGI [8],TGI [9],TGI [10],GI50 [6],GI50 [7],GI50 [1],GI50 [2],GI50 [8],GI50 [3],GI50 [4],GI50 [10],GI50 [5],GI50 [9]
NC(=O)/N=C1/CCC2C3CCCC2C13,> 100 µM,> 100 µM,> 100 µM,> 100 µM,> 100 µM,–,–,–,–,–,–,–,–,–,–,–,–,–,–,–
Oc1ccc2ccccc2c1N=Nc1ccsc1,> 100 µM,> 100 µM,> 100 µM,> 100 µM,> 100 µM,> 100 µM,> 100 µM,–,–,–,–,–,–,–,–,–,–,–,–,–
CN(C)CCNC(=O)c1cccc(N(C)C(=O)c2ccccc2)c1[N+](=O)[O-],> 100 µM,> 100 µM,–,> 100 µM,> 100 µM,> 100 µM,> 100 µM,> 100 µM,> 100 µM,> 100 µM,–,–,–,–,–,–,–,–,–,–
Cc1ccc(S(=O)(=O)NC2(C=O)CCCC3CCCCC32)cc1 (stereo unspecified),> 100 µM,> 100 µM,–,> 100 µM,> 100 µM,> 100 µM,> 100 µM,–,–,–,–,–,–,–,–,–,–,–,–,–
CC12CCC3(OCCO3)C(OC(=O)c3ccccc3)=C1CCC21OCCO1 (stereo unspecified),> 100 µM,> 100 µM,> 100 µM,> 100 µM,> 100 µM,> 100 µM,> 100 µM,–,–,–,–,–,–,–,–,–,–,–,–,–
O=C(COc1cc(O)c2c(=O)cc(-c3ccccc3)oc2c1)Nc1ccccc1C(F)(F)F,5.5 µM,4.15 µM,22.6 µM,> 100 µM,3.75 µM,17.8 µM,> 100 µM,22.5 µM,–,5.26 µM,4040 nM,3170 nM,2.21 µM,2.01 µM,3450 nM,4740 nM,8.17 µM,2040 nM,1.71 µM,–
CC(Nc1ccc(S(=O)(=O)N=C(N)N)cc1)c1c2ccccc2nc2ccccc12 (stereo unspecified),63.4 µM,> 100 µM,> 100 µM,> 100 µM,> 100 µM,–,65.6 µM,–,–,–,–,–,–,–,–,–,–,–,–,–
O=C(O)CCC(N=Cc1nc(-c2ccccc2)oc1O)C(=O)O (stereo unspecified),> 100 µM,> 100 µM,–,> 100 µM,> 100 µM,> 100 µM,> 100 µM,–,–,–,–,–,–,–,–,–,–,–,–,–
O=[P+](O)c1ccsc1,> 100 µM,> 100 µM,> 100 µM,–,> 100 µM,> 100 µM,–,–,–,–,–,–,–,–,–,–,–,–,–,–
COC(=O)C(C(=O)C(=O)Nc1ccc([N+](=O)[O-])cc1[N+](=O)[O-])c1nc2ccc(Cl)cc2[nH]c1=O (stereo unspecified),> 100 µM,> 100 µM,> 100 µM,> 100 µM,> 100 µM,> 100 µM,> 100 µM,–,–,–,–,–,–,–,–,–,–,–,–,–
CC(C)([NH-])CO.CC(C)([NH-])CO.[Cl][Cd][Cl],33.2 µM,31.3 µM,–,> 100 µM,> 100 µM,–,22.4 µM,–,–,–,–,8600 nM,18.7 µM,16.6 µM,–,–,36.5 µM,–,30.2 µM,–
O=C(Nc1ccc(Cl)c(Cl)c1)Nc1c(Oc2ccc(Cl)c(Cl)c2)ccc(Cl)c1S(=O)(=O)O,–,29.8 µM,> 100 µM,> 100 µM,> 100 µM,6.26 µM,–,> 100 µM,–,66.8 µM,1530 nM,–,–,3.05 µM,959 nM,1960 nM,0.927 µM,1980 nM,3.53 µM,–
C[n+]1c2cc(N)ccc2cc2ccc(N)cc21,3.69 µM [middle of 4 runs],–,5.52 µM [middle of 4 runs],–,–,0.795 µM and 0.599 µM and 0.492 µM,2.86 µM [middle of 4 runs],–,–,9.68 µM [middle of 4 runs],162 nM and 152 nM and 71.9 nM,763 nM [middle of 4 runs],1.33 µM [middle of 4 runs],1.33 µM [middle of 4 runs],2.72 µM [middle of 4 runs],956 nM and 2260 nM and 1820 nM,–,1.41 µM [middle of 4 runs],256 nM [middle of 4 runs],–
O=c1c(Br)cc2nc3ccccc3sc-2c1Br,> 100 µM,30.8 µM,> 100 µM,> 100 µM,> 100 µM,> 100 µM,> 100 µM,–,–,–,–,–,–,–,–,–,–,–,–,–
COc1cc(N(C)C)c(OC)cc1/C=C\c1ccnc2ccccc12,6.48 µM,> 10 µM,> 10 µM,> 10 µM,> 10 µM,9.92 µM,> 10 µM,7.66 µM,–,> 10 µM,–,–,–,–,–,–,–,–,–,–
Cc1ccc(NC(=O)CC2Sc3ccccc3NC2=O)c(C)c1 (stereo unspecified),29.6 µM,26.5 µM,> 100 µM,20.1 µM,39.7 µM,30.1 µM,47.7 µM,–,–,–,–,–,–,–,–,–,–,–,–,–
COC(=O)C(C(=O)OC)C1CCCC(=O)C1 (stereo unspecified),> 100 µM,> 100 µM,> 100 µM,> 100 µM,> 100 µM,> 100 µM,> 100 µM,–,–,–,–,–,–,–,–,–,–,–,–,–

Compound,TGI [1],TGI [2],TGI [3],TGI [4],TGI [5],TGI [6],TGI [7],TGI [8],TGI [9],TGI [10],GI50 [6],GI50 [7],GI50 [1],GI50 [2],GI50 [8],GI50 [3],GI50 [4],GI50 [10],GI50 [5],GI50 [9]
Cn1cnc([N+](=O)[O-])c1Sc1nccn1-c1cccc2ccccc12,90.2 µM,> 100 µM,32.4 µM,> 100 µM,> 100 µM,> 100 µM,42.2 µM,–,–,–,–,–,–,–,–,–,–,–,–,–
CC(=O)OC[C@@H](COC(=O)/C=C/c1ccc(O)cc1)OC1OC(CO)C(O)C(O)C1O (stereo partly specified),> 100 µM,> 100 µM,> 100 µM,> 100 µM,> 100 µM,> 100 µM,> 100 µM,–,–,–,–,–,–,–,–,–,–,–,–,–
C/C(CC(=O)Nc1ccc(C)c(C)c1)=N\NC(N)=O,> 100 µM,> 100 µM,> 100 µM,> 100 µM,> 100 µM,> 100 µM,> 100 µM,–,–,–,–,–,–,–,–,–,–,–,–,–
Cc1cccc(C(C)(C)C)c1NC(=O)CC1C(=O)Nc2ccccc2S1(=O)=O (stereo unspecified),10.2 µM,21.5 µM,18.6 µM,–,27.9 µM,28.4 µM,25.4 µM,–,–,–,–,–,–,–,–,–,–,–,–,–
C[As](C)SCC(COC(=O)C(Cl)c1ccccc1)OC(=O)C(Cl)c1ccccc1 (stereo unspecified),3.43 µM,8.05 µM,–,13.5 µM,15.2 µM,17.2 µM,1.44 µM,16.8 µM,> 45.8 µM,4.95 µM,4340 nM,139 nM,0.968 µM,0.884 µM,2760 nM,–,2.24 µM,1530 nM,3.84 µM,17.1 µM
CCOC(=O)N1CCC(=O)C(CNC23CC4CC(CC(C4)C2)C3)C1 (stereo unspecified),> 100 µM,29.4 µM,41.5 µM,> 100 µM,> 100 µM,> 100 µM,37.7 µM,–,–,–,–,–,–,–,–,–,–,–,–,–
COc1c2ccoc2c(OC)c2oc(=O)ccc12,> 100 µM,> 100 µM,> 100 µM,> 100 µM,> 100 µM,> 100 µM,–,> 100 µM,> 100 µM,> 100 µM,–,–,–,–,–,–,–,–,–,–
CN1C(=O)C2C3C=C4c5ccccc5N(c5ccccc5)C4(C2C1=O)[C@H]1C(=O)N(C)C(=O)[C@@H]31 (stereo partly specified),–,> 100 µM,> 100 µM,> 100 µM,> 100 µM,> 100 µM,> 100 µM,–,–,–,–,–,–,–,–,–,–,–,–,–
CCC[CH2][Sn]1([CH2]CCC)[O]CC(CN(C)Cc2ccccc2)[O]1 (stereo unspecified),20.6 µM,16.4 µM,16.2 µM,26.8 µM,38.6 µM,29.4 µM,9.21 µM,–,–,–,15100 nM,2720 nM,7.2 µM,4.41 µM,–,4120 nM,13.9 µM,–,19.6 µM,–
Cc1cccc(C)c1NC(=O)C1C(=O)N(c2c(C)cccc2C)C(=O)/C1=N\N (stereo unspecified),> 100 µM,> 100 µM,> 100 µM,–,> 100 µM,> 100 µM,> 100 µM,–,–,–,–,–,–,–,–,–,–,–,–,–
Nc1nc2c(ncn2C2C=CC(CO)C2)c(=O)[nH]1 (stereo unspecified),> 100 µM,> 100 µM,–,> 100 µM,> 100 µM,> 100 µM,> 100 µM,> 100 µM,> 100 µM,> 100 µM,–,–,–,–,–,–,–,–,–,–
CO/N=C(\C)c1ccc(Nc2cc(-c3ccccc3)nc3ccc(OC)cc23)cc1,4.74 µM,4.5 µM,–,–,70.2 µM,–,4.85 µM,11.2 µM,> 100 µM,3.24 µM,–,1780 nM,2.72 µM,2.17 µM,2610 nM,–,–,1230 nM,4.28 µM,33.7 µM
C/C1=C/C(=O)O[C@@H]2C[C@@H](CC[C@H](C)/C=C\C=C\CC1)O[C@@](O)([C@@H]1CSC(=O)N1)C2,0.991 µM,> 10 µM,> 3.88 µM,> 10 µM,> 10 µM,0.358 µM,> 10 µM,> 10 µM,–,> 2.65 µM,–,–,–,–,–,–,–,–,–,–
COC(=O)c1cccn1C(=O)n1cccc1,> 100 µM,> 100 µM,> 100 µM,> 100 µM,> 100 µM,> 100 µM,> 100 µM,–,–,–,–,–,–,–,–,–,–,–,–,–
CC(C)(C)c1cc(-n2c(-c3ccc(Cl)cc3)nc3cc(C(=O)Nc4ccc(Cl)cc4)ccc32)n[nH]1,> 100 µM,> 100 µM,–,> 100 µM,> 100 µM,> 100 µM,> 100 µM,> 100 µM,> 100 µM,> 100 µM,1990 nM,5290 nM,28 µM,6.18 µM,4170 nM,–,2.76 µM,23700 nM,3.71 µM,3.72 µM
CC(=O)C1C(c2ccc(N(C)C)cc2)c2cc3c(cc2OC1(C)O)OCO3 (stereo unspecified),–,> 100 µM,> 100 µM,–,> 100 µM,–,> 100 µM,–,–,–,–,–,–,–,–,–,–,–,–,–
